According to patent US8497376B2, “Inhibitors of c-fms kinase” (Janssen Pharmaceutica N.V., priority 2007, dated 2013):
Structures can show the parent of a compound that is named as a salt. Where two headings read alike, the source gives them in different places.

Experiments:
in vivo = settings: Lewis, rat, po
Experimental: (§1) Chronic, T-cell dependent, erosive arthritis was severe by day 20 at which time twice daily oral dosing was commenced until sacrificed on day 32 to determine if the compound of Example 15 (hereinafter, Compound A) can reverse established disease.
(§2) Compound A was formulated in 5% solutol, 5% ethanol, 90% water. The dose volume was 5 ml/kg.
Exposure: Two hours following the last dose of 3, 10 and 20 mpk, plasma levels of Compound A were 247±22, 802±35, and 1475±70 ng/ml, respectively (mean±SEM).

[1] = test system: streptococcal cell wall (SCW) model of arthritis in rats; experiment: SCW arthritis in rats (chronic phase, therapeutic dosing); type: in vivo, rat; settings: for Number of steps taken using hind limbs in a thirty second observation period: average of three rats
Excerpt: Purpose: A polyarthritis occurs in female Lewis rats following i.p. administration of streptococcal cell wall (SCW) components. The model has an acute non-erosive phase (days 3-7) that is complement and neutrophil dependent and which resolves. A chronic erosive phase begins at about day ten and is dependent on the development of specific T cell immunity to SCW, and possibly to self-antigens. The SCW-induced model has been used less frequently for pharmaceutical testing than the adjuvant-induced or collagen-induced models of arthritis, but each model predicts accurately the anti-inflammatory potential of TNF-inhibitors. The chronic phase of the SCW model is macrophage dependent.
Method: Female Lewis rats (80-100 gm each) were purchased from Charles River. Streptococcal cell wall peptidoglycan-polysaccharide polymers (PG-PS 10S) were purchased from BD (Cat#210866). PG-PS 10S was vortexed for 30 seconds to thoroughly mix the material and sonicated at low energy levels (level 6) for 3 min with a probe type sonicator prior to injection. On day 0, sixty rats were anesthetized using isoflurane, and injected i.p. with 15 μg of rhamnose/gram body weight (BW) in the lower left quadrant of the abdomen. Ten rats were treated in a similar manner with sterile saline.
as §1, §2
Left and right hind ankles of each rat were measured with calipers every day for the first six days (post-injection) and then at least every two or three days for the remainder of the study. Ankles were assigned a clinical score based on erythema and swelling as follows: 1=ankle only; 2=ankle and proximal half of tarsal joint; 3=ankle and entire tarsal joint; 4=involvement of the entire paw including digits. Animal scores represented the sum of the two hind paws.
Disease reversal was accompanied by restoration of function. To assess function, three representative rats per group were videotaped for thirty seconds on days 19 and 32, and steps taken with hind limbs were counted and reported in Table 3. On day 19 following SCW, rats ambulated primarily using front paws. Hind paws were nearly immobilized.

[2] = test system: mouse bone-marrow derived macrophages; experiment: CSF-1-driven mouse bone-marrow derived macrophages assay (BrDU incorporation); type: cell-based; settings: CSF-1-driven proliferation, 30 hrs culture
Experimental: Macrophages were derived by culturing mouse bone marrow in alpha-MEM supplemented with 10% FCS and 50 ng/ml recombinant mouse CSF-1 in bacteriologic dishes. On the sixth day, macrophages were detached from dishes, washed, and resuspended to 0.05 million cells/ml in alpha-MEM containing 10% FCS. One hundred ul of cell suspension were distributed per well into 96 well culture plates. Wells were further supplemented with the addition of 50 ul media containing 15 ng/ml CSF-1, 3 uM Indomethacin, and 3× of a dilution series of test compounds. The cells were cultured for 30 hrs at 37 degrees and 5% CO2. During the final six hours, cultures were supplemented with an additional 30 ul of media containing a 1:500 dilution of bromodeoxyuridine (BrDU). At the end of the culture period, the plates were spun at 1000 RPM for 1 minute and 130 ul of media was removed with a pipet and replaced with 150 ul of fixative solution for 1 hour@room temperature. The fixative was then dispelled from the plates and the plates allowed to air dry. Incorporation of BrDU into the fixed, dried cells was quantified using a specific ELISA.

c-fms = c-fms (Homo sapiens (Human), UniProt P07333); experiment: Autophosphorylation fluorescence polarization competition immunoassay for c-fms inhibition; type: biochemical; settings: 10 nM c-fms, 1 mM ATP; average of three independent measurements
Sequence of c-fms (P07333 20-972): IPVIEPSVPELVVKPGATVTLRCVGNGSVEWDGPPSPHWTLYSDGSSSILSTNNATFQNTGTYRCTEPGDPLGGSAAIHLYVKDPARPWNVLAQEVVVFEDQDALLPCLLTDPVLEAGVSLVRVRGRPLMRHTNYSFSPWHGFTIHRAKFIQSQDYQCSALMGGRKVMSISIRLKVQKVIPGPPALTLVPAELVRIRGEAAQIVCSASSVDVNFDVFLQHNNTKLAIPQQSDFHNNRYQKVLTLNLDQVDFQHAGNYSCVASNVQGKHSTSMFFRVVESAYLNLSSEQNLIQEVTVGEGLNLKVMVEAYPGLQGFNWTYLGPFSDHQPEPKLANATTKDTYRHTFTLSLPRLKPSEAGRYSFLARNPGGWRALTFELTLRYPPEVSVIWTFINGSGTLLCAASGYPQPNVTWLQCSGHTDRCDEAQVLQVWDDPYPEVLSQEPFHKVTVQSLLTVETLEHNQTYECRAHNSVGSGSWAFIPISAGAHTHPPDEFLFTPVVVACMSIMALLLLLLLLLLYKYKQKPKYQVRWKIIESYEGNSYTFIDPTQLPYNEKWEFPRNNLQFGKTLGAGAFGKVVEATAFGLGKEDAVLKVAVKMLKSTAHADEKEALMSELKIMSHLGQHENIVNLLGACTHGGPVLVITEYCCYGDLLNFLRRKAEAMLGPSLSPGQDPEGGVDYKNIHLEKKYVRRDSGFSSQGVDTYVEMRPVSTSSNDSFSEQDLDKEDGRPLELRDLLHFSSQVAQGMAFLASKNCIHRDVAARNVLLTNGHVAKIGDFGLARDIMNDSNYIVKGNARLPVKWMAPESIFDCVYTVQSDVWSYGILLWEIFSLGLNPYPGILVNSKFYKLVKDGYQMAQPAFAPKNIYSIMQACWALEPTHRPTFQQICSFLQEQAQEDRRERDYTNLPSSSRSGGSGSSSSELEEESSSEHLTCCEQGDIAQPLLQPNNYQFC
Experimental: The assay buffer used was 100 mM 4-(2-hydroxyethyl)piperazine1-ethanesulfonic acid (HEPES), pH 7.5, 1 mM 1,4-dithio-DL-threitol (DTT), 0.01% (v/v) Tween-20. Compounds were diluted in assay buffer containing 4% dimethylsulfoxide (DMSO) just prior to the assay. […] The kinase reaction was initiated by adding 2 μL of 5 mM ATP (Sigma) in assay buffer. The final concentrations in the assay were 10 nM c-fms, 1 mM ATP, 5 mM MgCl2, 2% DMSO. Control reactions were ran in each plate: in positive and negative control wells, assay buffer (made 4% in DMSO) was substituted for the compound; in addition, positive control wells received 1.2 μL of 50 mM ethylenediaminetetraaceticacid (EDTA). The plates were incubated at room temperature for 45 min. At the end of the incubation, the reaction was quenched with 1.2 μL of 50 mM EDTA (EDTA was not added to the positive control wells at this point; see above). Following a 5-min incubation, each well received 10 μL of a 1:1:3 mixture of anti-phosphotyrosine antibody, 10×, PTK green tracer, 10× (vortexed), FP dilution buffer, respectively (all from PanVera, cat. # P2837). The plate was covered, incubated for 30 min at room temperature and the fluorescence polarization was read on the Analyst. The instrument settings were: 485 nm excitation filter; 530 nm emission filter; Z height: middle of well; G factor: 0.93. […] The reported IC50 values are averages of three independent measurements.

| SMILES | IC50 ([2]; Mus musculus, BMDM) | IC50 (c-fms) | further results |
| --- | --- | --- | --- |
| CC1(C)CC=C(c2nc(C3CC(C)(C)OC(C)(C)C3)ccc2NC(=O)c2nc(C#N)c[nH]2)CC1 [Example 15, 4-Cyano-1H-imidazole-2-carboxylic acid[2-(4,4-dimethyl-cyclohex-1-enyl)-6-(2,2,6,6-tetramethyl-tetrahydro-pyran-4-yl)-pyridin-3-yl]-amide] | 6.1 nM | – | concentration at 2 h (in vivo; 3 mg/kg): 247 ± 22 ng/mL; concentration at 2 h (in vivo; 10 mg/kg): 802 ± 35 ng/mL; concentration at 2 h (in vivo; 20 mg/kg): 1480 ± 70 ng/mL; Number of steps taken using hind limbs in a thirty second observation period ([1]; Day 19 (before treatment), 3 mg/kg group): 1.7; Number of steps taken using hind limbs in a thirty second observation period ([1]; Day 19 (before treatment), 10 mg/kg group): 1.3; Number of steps taken using hind limbs in a thirty second observation period ([1]; Day 19 (before treatment), 20 mg/kg group): 1.3; Number of steps taken using hind limbs in a thirty second observation period ([1]; Day 32, 3 mg/kg oral b.i.d.): 7.7; Number of steps taken using hind limbs in a thirty second observation period ([1]; Day 32, 10 mg/kg oral b.i.d.): 7.3; Number of steps taken using hind limbs in a thirty second observation period ([1]; Day 32, 20 mg/kg oral b.i.d.): 6; use of hind limbs (function) ([1]; day 32, rats treated with Compound A): used hind limbs in a normal fashion; paw swelling (caliper measurements of paw thickness and visual scores) ([1]; dosing p.o. b.i.d. initiated on day 20 after disease was severe, 3, 10, 20 mpk): caused a reversal of paw swelling |
| CC1(C)CC=C(c2cc(C3C[C@](C)(CO)O[C@](C)(CO)C3)ccc2NC(=O)c2ncc(C#N)[nH]2)CC1 (stereo partly drawn) [Example 14, 4-Cyano-1H-imidazole-2-carboxylic acid[4-cis-(2-cis,6-cis-bis-hydroxymethyl-2,6-dimethyl-tetrahydro-pyran-4-yl)-2-(4,4-dimethyl-cyclohex-1-enyl)-phenyl]-amide (A) and 4-Cyano-1H-imidazole-2-carboxylic acid[4-trans-(2-cis,6-cis-bis-hydroxymethyl-2,6-dimethyl-tetrahydro-pyran-4-yl)-2-(4,4dimethyl-cyclohex-1-enyl)-phenyl]-amide (B)] | – | 1.1 nM | IC50 ([2]; read-out: BMDM IC50): 4.7 nM |
| COC[C@@]12CC[C@@](COC)(C[C@H](c3ccc(NC(=O)c4nc(C#N)c[nH]4)c(C4=CCC(C)(C)CC4)c3)C1)O2 [Example 7, 4-Cyano-1H-imidazole-2-carboxylic acid[4-((3-exo)-1,5-bis-methoxymethyl-8-oxa-bicyclo[3.2.1]oct-3-yl)-2-(4,4-dimethyl-cyclohex-1-enyl)-phenyl]-amide] | 3.3 nM | 2 nM | – |
| CC1(C)CC(c2ccc(NC(=O)c3nc(C#N)c[nH]3)c(C3=CCCCC3)n2)CC(C)(C)O1 [Example 16, 4-Cyano-1H-imidazole-2-carboxylic acid[2-cyclohex-1-enyl-6-(2,2,6,6-tetramethyl-tetrahydro-pyran-4-yl)-pyridin-3-yl]-amide] | 8.2 nM | 1.4 nM | – |
| COC[C@@]12C=C[C@@](COC)(C[C@](O)(c3ccc(NC(=O)c4nc(C#N)c[nH]4)c(C4=CCC(C)(C)CC4)c3)C1)O2 [Example 1, 4-Cyano-1H-imidazole-2-carboxylic acid[2-(4,4-dimethyl-cyclohex-1-enyl)-4-[(3-exo)-3-hydroxy-1,5-bis-methoxymethyl-8-oxa-bicyclo[3.2.1]oct-6-en-3-yl]-phenyl]-amide] | 3.2 nM | 0.86 nM | – |
| CC1(C)CC=C(c2nc(C3C[C@](C)(CO)O[C@](C)(CO)C3)ccc2NC(=O)c2nc(C#N)c[nH]2)CC1 (stereo partly drawn) [Example 20, 4-Cyano-1H-imidazole-2-carboxylic acid[(4-cis)-(2-cis,6-cis-bis-hydroxymethyl-2,6-dimethyl-tetrahydro-pyran-4-yl)-2-(4,4dimethyl-cyclohex-1-enyl)-pyridin-3-yl]-amide trifluoroacetic acid salt and 4-Cyano-1H-imidazole-2-carboxylic acid[(4-trans)-(2-cis,6-cis-bis-hydroxymethyl-2,6-dimethyl-tetrahydro-pyran-4-yl)-2-(4,4-dimethyl-cyclohex-1-enyl)-pyridin-3-yl]-amide trifluoroacetic acid salt] | 6.5 nM | 0.41 nM | – |
| CC1(C)CC=C(c2cc([C@@H]3C[C@]4(CO)CC[C@](CO)(C3)O4)ccc2NC(=O)c2nc(C#N)c[nH]2)CC1 [Example 5, 4-Cyano-1H-imidazole-2-carboxylic acid[4-[(3-endo)-1,5-bis-hydroxymethyl-8-oxa-bicyclo[3.2.1]oct-3-yl]-2-(4,4-dimethyl-cyclohex-1-enyl)-phenyl]-amide] | 4.7 nM | 0.47 nM | – |
| CC1(C)CC=C(c2nc(C3C[C@@]4(C)O[C@@](C)(C3)[C@H](O)[C@@H]4O)ccc2NC(=O)c2nc(C#N)c[nH]2)CC1 (stereo partly drawn) [Example 18, 4-Cyano-1H-imidazole-2-carboxylic acid[6-[(3-exo)-(6-exo,7-exo-dihydroxy-1,5-dimethyl-8-oxa-bicyclo[3.2.1]oct-3-yl)-2-(4,4-dimethyl-cyclohex-1-enyl)-pyridin-3-yl]-amidetrifluoroacetic acid saft and 4-Cyano-1H-imidazole-2-carboxylic acid[6-[(3-endo)-(6-exo,7-exo-dihydroxy-1,5-dimethyl-8-oxa-bicyclo[3.2.1]oct-3-yl)-2-(4,4-dimethyl-cyclohex-1-enyl)-pyridin-3-yl]-amidetrifluoroacetic acid salt] | 10 nM | 0.72 nM | – |
